Results as given in PubChem BioAssay AID1996.
Converted amounts (≈) assume the structure as drawn.

Settings: buffer; pH 7.4; 200.0 µM

Row | SMILES | solubility kinetic [µg/mL]
1 | CC(=O)Nc1ccc(C(=O)COC(=O)CCN2C(=O)C3CC=CCC3C2=O)cc1 (stereo not given) | > 59.8
2 | CCCOC(=O)Cn1cnc2scc(-c3ccc(OC)cc3)c2c1=O | 27.7 (≈ 77.3 µM)
3 | Cn1c(N)c(N=O)c(=O)n(C)c1=O | > 27.6
4 | CCOC(=O)N1CCN(C(=O)C(C)NC(=O)c2ccco2)CC1 (stereo not given) | 44.3 (≈ 137 µM)
5 | CCCCCC(=O)NC(CC(=O)OC)c1ccc2c(c1)OCO2 (stereo not given) | > 48.2
6 | O=C(O)c1nccnc1C(=O)Nc1ccccc1-c1ccccc1 | > 47.9
7 | N/C(=N\OC(=O)CCCc1ccccc1)c1ccccc1 | 7.2 (≈ 25.5 µM)
8 | CC(=O)N(c1ccc(C)cc1)c1nc(C)cc(C)c1C#N | > 41.9
9 | CCS(=O)(=O)C(C)(CCl)C(=O)Nc1ccc(C(=O)OC)cc1 (stereo not given) | > 52.2
10 | Cc1ccc(/C=C/C(=O)O)cc1S(=O)(=O)N1CCCCC1 | > 46.4
11 | O=C(Nc1ccccn1)c1cc2ccccc2cc1O | 0.5 (≈ 1.89 µM)
12 | Cc1ccc(C)c(NCC(=O)c2ccc(Cl)cc2)c1 | 2.2 (≈ 8.04 µM)
13 | COc1ccccc1NC(=O)CN1CCN(c2ccccc2)CC1 | 35.3 (≈ 108 µM)
14 | COc1ccc(C(=O)N2CCN(Cc3nc(CC4CC4)no3)CC2)cc1 | > 53.5
15 | CSc1ncccc1C(=O)Nc1ccc2c(c1)OCO2 | 30.8 (≈ 107 µM)
16 | Cc1ccccc1C(=O)N1CCC(C(=O)NC2CCCCCC2)CC1 | 48.6 (≈ 142 µM)
17 | Cc1cc(NS(=O)(=O)c2ccc(C(C)C)cc2)no1 | 40.2 (≈ 143 µM)
18 | CCOC(=O)C1=C(COC(=O)c2ccc([N+](=O)[O-])s2)NC(=O)NC1C (stereo not given) | > 55.4
19 | CC(=O)N1CCN(c2ccccc2NC(=O)c2ccco2)CC1 | > 47
20 | CCn1c(C)cc(O)cc1=O | > 23

Row | SMILES | solubility kinetic [µg/mL]
21 | O=S(=O)(c1ccccc1)c1nc(-c2ccccc2Cl)oc1NCCCN1CCOCC1 | 3.6 (≈ 7.79 µM)
22 | CN(Cc1ccccc1Cl)C(=O)c1cc2ccccc2o1 | 13.7 (≈ 45.7 µM)
23 | CNC(=S)N(CCc1c(C)[nH]c2ccc(F)cc12)Cc1ccco1 | 3 (≈ 8.68 µM)
24 | Cc1nc2ccc(NS(=O)(=O)c3ccc(F)c(F)c3F)cc2s1 | 50.7 (≈ 141 µM)
25 | N/C(=N\OC(=O)c1ccc(Cl)c([N+](=O)[O-])c1)c1ccccn1 | 2.7 (≈ 8.42 µM)
26 | O=C(COC(=O)c1cccc([N+](=O)[O-])c1)NCc1cccs1 | 36 (≈ 112 µM)
27 | CCNc1nc(NC(C)C)nc(N(C)C#N)n1 | > 35.3
28 | Cc1ccc(C)c(NC(=O)CN(C)C(C)C(=O)N2CCCC2)c1 (stereo not given) | 42.1 (≈ 133 µM)
29 | CC(C)(C)C(=O)Cn1c(NCCCl)nc2ccccc21.Cl | > 49.5
30 | O=C1CCN(S(=O)(=O)c2ccc(Cl)cc2)CC1 | > 41.1
31 | Cc1ccc(NC(=O)c2ccc3nsnc3c2)c(C)c1 | 1.5 (≈ 5.29 µM)
32 | S=C(NCC1(c2ccccc2)CCCC1)Nc1ccccc1 | 0.8 (≈ 2.58 µM)
33 | N#CC1=C(N)Oc2c(ccc3cccnc23)C1c1ccccc1 (stereo not given) | 9.8 (≈ 32.7 µM)
34 | CC(=O)c1ccc(OCCCC(=O)Nc2cccc(S(=O)(=O)N3CCCCCC3)c2)cc1 | 10.4 (≈ 22.7 µM)
35 | Cn1c(-c2cc3ccccc3oc2=O)nc2ccccc21 | 2.5 (≈ 9.05 µM)
36 | COC(=O)[C@H](C)NC(=O)NCc1ccc(S(N)(=O)=O)cc1 | > 47.3
37 | CC(C)c1ccc(C2NC(=O)c3ccccc3O2)cc1 (stereo not given) | 1 (≈ 3.74 µM)
38 | COc1ccc(CNc2nc3ccccc3n2C(C)C)cc1 | 5.7 (≈ 19.3 µM)
39 | CN(C)C(CNC(=O)c1cccs1)c1ccco1 (stereo not given) | > 39.7
40 | O=[N+]([O-])c1ccc(N2CCN(c3cccc(Cl)c3)CC2)nc1 | 0.4 (≈ 1.25 µM)

Row | SMILES | solubility kinetic [µg/mL]
41 | CCC1CN(C(=O)NCc2ccccc2)c2cc(Cl)ccc2O1 (stereo not given) | < 0.4
42 | CCCNC(=O)c1ccc(COc2ccc(C(C)(C)C)cc2)o1 | 10.9 (≈ 34.6 µM)
43 | CN(Cc1ccccc1)C(=O)CC(=O)N(C)Cc1ccccc1 | > 46.6
44 | CCCn1c(=O)[nH]c(=O)c2[nH]cnc21 | > 29.1
45 | c1cncc(C2OCC3(CO2)COC(c2cccnc2)OC3)c1 (stereo not given) | > 47.2
46 | COc1ccc(C(=O)O/N=C(\N)Cc2cccs2)cc1OC | > 48.1
47 | Cc1ccc(F)cc1NC(=O)CN1CCN(c2ccccn2)CC1 | > 49.3
48 | CC(=O)c1cn(CC(=O)Nc2ccc(C)c(C)c2)c2ccccc12 | < 0.3
49 | CCOc1ccc(CN(C)CC(=O)Nc2cccc(C)c2)cc1OC | > 51.4
50 | CC(=O)Nc1ccc(S(=O)(=O)NCC2CCCO2)cc1 (stereo not given) | > 44.8
51 | O=C(/C=C/c1ccc(F)cc1)Nc1cccc(S(=O)(=O)N2CCOCC2)c1 | 13.9 (≈ 35.6 µM)
52 | O/N=C/c1ccnc(SCc2ccc(Cl)cc2)n1 | 1.2 (≈ 4.29 µM)
53 | COc1ccc(OC)c(NC(=O)CCN2CCN(CCO)CC2)c1 | 45.7 (≈ 135 µM)
54 | Cc1nc([N+](=O)[O-])cn1CCCCN1C(=O)c2ccccc2C1=O | 8.3 (≈ 25.3 µM)
55 | CC(=O)N1CCN(C(=O)c2cc3c(s2)CCCC3)CC1 | > 43.9
56 | CN(C)C(=O)c1ccc(=O)n(Cc2ccc(Cl)cc2Cl)c1 | > 48.8
57 | CSc1ccccc1C(=O)Nc1cccc([N+](=O)[O-])c1C | 7.5 (≈ 24.8 µM)
58 | COc1ccccc1CC(=O)NCCc1c[nH]c2ccccc12 | 44.9 (≈ 146 µM)
59 | c1ccc(-c2nc(-c3cccnc3)cs2)cc1 | 21.4 (≈ 89.8 µM)
60 | N#Cc1cccc(C(=O)Nc2cc(S(=O)(=O)N3CCOCC3)ccc2N2CCCC2)c1 | > 66.1
